pIC50: −log10 of the molar value. Where “and” joins values, the source holds several entries; their conditions need not be identical. Identical values can stand only once.
Biological target: T1, Histidine--tRNA ligase (Leishmania infantum, UniProt A4I591)
T1 sequence (A4I591 whole entry): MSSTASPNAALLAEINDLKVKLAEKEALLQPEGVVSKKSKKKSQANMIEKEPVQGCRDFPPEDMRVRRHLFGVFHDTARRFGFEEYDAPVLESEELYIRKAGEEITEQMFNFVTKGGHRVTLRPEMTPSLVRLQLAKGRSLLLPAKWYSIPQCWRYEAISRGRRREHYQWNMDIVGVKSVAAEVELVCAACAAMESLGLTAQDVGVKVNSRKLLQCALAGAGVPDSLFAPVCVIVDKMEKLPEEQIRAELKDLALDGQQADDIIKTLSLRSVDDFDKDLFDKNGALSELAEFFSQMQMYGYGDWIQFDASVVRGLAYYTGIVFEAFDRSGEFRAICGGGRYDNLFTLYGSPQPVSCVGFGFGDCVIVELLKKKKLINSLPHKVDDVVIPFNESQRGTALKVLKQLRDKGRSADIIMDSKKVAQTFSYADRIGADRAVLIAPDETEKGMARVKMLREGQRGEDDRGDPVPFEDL
Assay: Leishmania infantum Histidine tRNA synthetase (LdHisRS)
Format: functional

Row | Structure (SMILES) | pIC50
1 | CC1=Nc2c(c(=O)[nH]n2C(C)C)C(c2ccc3c(c2)OCCO3)S1 (stereo not drawn) | < 4.00
2 | CCCc1nc(CN2CCOC(CNc3cccnn3)C2)cs1 (stereo not drawn) | 4.35 and 4.48
3 | O=C1NCC(C(=O)Nc2ccc(=O)n(Cc3ccccc3Cl)c2)N1 (stereo not drawn) | 4.90 and 4.82
4 | CC(C(=O)Nc1ccc(N2CCCC2)nc1)n1cncn1 (stereo not drawn) | < 4.00
5 | CC(=O)NCC1CCN(c2cc(C)nc(-c3ccncc3)n2)CC1 | 4.19 and < 4.00
6 | Cc1cccc2c1nc(COCC(=O)O)n2-c1cnc(N)cn1 | < 4.00
7 | FC(F)(F)c1ccc(-c2cc(NC3CCNCC3)nc3[nH]ccc23)nc1 | 4.53 and 4.52
8 | O=C(c1nc2c(s1)CCCN2CC1CC1)N1CCOCC1 | 4.72 and 4.88
9 | CC(C)c1nn(C)c(N(C)C)c1CNCc1ccccc1CN(C)C | < 4.00
10 | CCC1CN(CCC(=O)N(C)C)CCN1CCOC (stereo not drawn) | < 4.00
11 | Cc1ccc(-c2noc(CN3CCc4nn(C)c(=O)cc4C3)n2)cc1 | 4.53 and 4.52
12 | O=C(O)C1c2nc[nH]c2CCN1CC(c1ccccc1)c1ccccc1 (stereo not drawn) | 5.21 and 5.15
13 | CCCn1nc2c(cc1=O)CN(CCCN1CCCC1=O)CC2 | 4.31 and 4.26
14 | CCCN1CCC(Cc2nn3c(C(C)C)nnc3s2)CC1 | < 4.00
15 | COc1cccc2c1OCCCN(c1nc(N)nc3c1CCNC3)C2 | 4.55 and 4.49
16 | CCc1ccc2c(C3CN(CC4CCC4)C3)ncn2c1 | 4.80 and 4.73
17 | CCc1cc(N2CCC(F)(F)CC2)n2nc(C)c(C)c2n1 | < 4.00
18 | COc1cccn(Cc2nnc(-c3cccc(F)c3)o2)c1=O | 4.80 and 4.89
19 | c1cc2nccc(CC3CCCN(Cc4ncc[nH]4)CC3)c2cn1 (stereo not drawn) | < 4.00
20 | COc1cccn(CC(=O)N(C)CCCOc2c(C)cccc2C)c1=O | < 4.00

Row | Structure (SMILES) | pIC50
21 | Cc1cc(C)cc(OCCC(=O)NC2CC(=O)N(C)C2)c1 (stereo not drawn) | < 4.00
22 | CNc1[nH]nc(N)c1NC(=O)c1ccccc1 | 4.90 and 4.84
23 | Cc1csc(N2CCN(C(=O)CCC(=O)c3ccc(C)s3)CC2)n1 | < 4.00
24 | O=C(c1cncc(N2CCC3(CCCNC3)C2)n1)N1CCCC1 (stereo not drawn) | < 4.00
25 | COc1ccc(CCN)cc1-c1ccc(C(N)=O)cc1 | 4.31 and 4.55
26 | Cc1c(CN2CCOCC2)c(O)n(CCc2ccccc2)c(=O)c1C#N | 4.63 and 4.70
27 | CNC(=O)c1cn2cc(-c3ccccc3Cl)n(CC=C(C)C)c(=O)c2n1 | 4.26 and 4.44
28 | COCCCN(C)C(=O)Cn1cccc(OC)c1=O | 4.18 and 4.24
29 | COCCn1cc(-c2cc(C(=O)N3CCCC3)c3ccccn23)nc1C | < 4.00
30 | Cc1ccccc1-c1noc(CN2CCc3nn(C)c(=O)cc3C2)n1 | 4.60 and 4.67
31 | Cn1cc(NS(=O)(=O)c2ccc(F)c(F)c2)ccc1=O | < 4.00
32 | Cc1nnc(NCCc2coc(-c3ccccc3)n2)c(C#N)c1C | 4.13 and 4.25
33 | CC(Nc1nc(-c2ccncc2)nc2c1CCNC2)c1ccccc1 (stereo not drawn) | 4.36 and 4.33
34 | O=C(Nc1c(N2CCCC2)cccc1N1CCCC1)c1ccccn1 | 4.49 and 4.57
35 | O=C1CC(c2ccc(C(=O)O)cc2)c2ncn(-c3ccc(Cl)cc3)c2N1 (stereo not drawn) | 4.80 and 4.91
36 | c1ccc(Cn2cc(CNCC3CCCN3c3cccnn3)cn2)cc1 (stereo not drawn) | < 4.00
37 | CC(=O)N1CCN(c2ccccc2CNc2ccc3[nH]ncc3c2)CC1 | < 4.00 and 4.12
38 | CC(O)CNC(=O)NCc1ccc(N2CCNC(=O)C2)cc1 (stereo not drawn) | < 4.00 and 4.23
39 | Cc1nccn1-c1cccc(C2CCCN(C3CCCC3)C2)n1 (stereo not drawn) | 4.49 and 4.44
40 | CC(C)N(C)S(=O)(=O)c1ccc2c(c1)CCN(C(=O)c1ccccn1)C2 | 4.43 and 4.37

Row | Structure (SMILES) | pIC50
41 | COc1ccc(NC(=O)C2CCCO2)cc1OCc1cccnc1 (stereo not drawn) | < 4.00 and 4.14
42 | CC1=C(C#N)C(=O)NC(=O)/C1=C\c1c(C)nn(-c2ccc(Cl)cc2)c1O | < 4.00
43 | CCC(=O)Nc1cc(Br)cn(C)c1=O | 5.12 and 5.10
44 | O=C(c1ccc2[nH]ccc2c1)N1Cc2nc(CN3CCCCC3)oc2C1 | 4.47 and 4.63
45 | CN(Cc1ccccc1CN1CCCC1)c1ncnc2[nH]ccc12 | 4.35 and 4.31
46 | COc1cccc(-c2n[nH]c3c2CN(C(=O)c2cccc(=O)[nH]2)CC3)c1 | 4.89
47 | O=C1CC(c2ccc(C(=O)O)cc2)c2ncn(-c3ccccc3F)c2N1 (stereo not drawn) | 4.72 and 4.60
48 | CN(C)CCn1c(=O)oc2ccc(NC(=O)C3CCCO3)cc21 (stereo not drawn) | < 4.00
49 | CC(=O)N1CCO[C@@H]2CN(S(=O)(=O)c3ccc(C)cc3)CC[C@@H]2C1 | < 4.00
50 | Cc1cc(O)ncc1NS(=O)(=O)c1cccc(F)c1F | 4.34 and 4.31
51 | COc1nccnc1-c1cc(NC2CCNCC2)nc2[nH]ccc12 | 4.47 and 4.53
52 | CN1C(=O)[C@H]2CC[C@@H]1CN(C(=O)Nc1cccc3ccccc13)C2 | 4.26 and 4.36
53 | CC(C)c1ncc2c(n1)CN(Cc1nc(Cc3ccccc3)no1)CC2 | < 4.00
54 | CCCn1nc2c(cc1=O)CN(Cc1cc(C)no1)CC2 | 4.61 and 4.56
55 | c1cncc(NCCNC2CCSC2)c1 (stereo not drawn) | 4.50 and 4.64
56 | Cc1cc2nc(SCC(=O)N3CCCC3)n(-c3ccccc3)c(=O)c2[nH]1 | 4.09 and < 4.00
57 | CCOc1ccc(N(CCC#N)C(=O)c2ccnc(SC)c2)cc1 | < 4.00
58 | CCOc1ccc2nc(CN3CCC(CN)C3)ccc2c1 (stereo not drawn) | 4.48 and 4.33

Source: ChEMBL document CHEMBL3988442, “University of Dundee, Small-Polar-MMV Screening Library” (2021)
